Data from ChEMBL document CHEMBL1201862, “PubChem BioAssay data set” (2004).
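Five compound concentrations were applied to cells in 96-well plates for 48 hours; endpoints were derived by simple linear interpolation of the resulting dose-response curve. The concentration for 50% growth inhibition is given as GI50.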 Activity calls are given as the source filed them. Cut-off read from the data, not from the text of the source: active = GI50 up to about 1.1 µM and inactive = higher.

Key:
Experiment in all cases: NCI tumour cell line growth inhibition, 48 h
[1] = system: ACHN
[2] = system: SNB-75
[3] = system: SW-620
[4] = system: MCF7
[5] = system: OVCAR-5
[6] = system: A549
[7] = system: OVCAR-4
[8] = system: M14
[9] = system: 786-0
[10] = system: SK-MEL-2
[11] = system: SF-268
[12] = system: COLO 205
[13] = system: CAKI-1
[14] = system: HOP-62
[15] = system: DU-145
[16] = system: A498
[17] = system: HCT-116
[18] = system: NCI/ADR-RES
[19] = system: K562
[20] = system: MDA-MB-435

Measured: GI50

COc1cccc(OCC(=N/NC(=O)c2ccncc2)/N=C/c2cccnc2)c1
inactive: [1] > 100 µM | [2] > 100 µM | [3] > 100 µM | [4] > 100 µM | [5] > 100 µM | [6] > 100 µM | [7] > 100 µM | [8] > 100 µM | [9] > 100 µM | [10] > 100 µM | [11] > 100 µM | [12] > 100 µM | [13] > 100 µM | [14] > 100 µM | [15] > 100 µM | [16] > 100 µM | [17] > 100 µM | [18] > 100 µM | [19] > 100 µM | [20] > 100 µM

C[C@]12C(=O)OC[C@H](c3ccccc3)N1C(=O)N(Cc1ccccc1)[C@@H]2CO
inactive: [1] > 100 µM | [2] 45.6 µM | [3] > 100 µM | [4] > 100 µM | [5] > 100 µM | [6] > 100 µM | [7] > 100 µM | [8] > 100 µM | [9] > 100 µM | [10] > 100 µM | [11] > 100 µM | [12] > 100 µM | [13] > 100 µM | [14] > 100 µM | [15] > 100 µM | [16] > 100 µM | [17] > 100 µM | [18] > 100 µM | [19] > 100 µM | [20] > 100 µM

COC(=O)/C=C(/C(=O)OC)c1c(C)cc2c(C)cc(C)cc(C)c1-2
inactive: [1] 20.4 µM | [2] 16.7 µM | [3] 7.18 µM | [4] 4.1 µM | [5] 18.9 µM | [6] 14.9 µM | [7] 22.3 µM | [8] 8.28 µM | [9] 15.2 µM | [10] 20 µM | [11] 19.1 µM | [12] 7.24 µM | [13] 32.6 µM | [14] 9.14 µM | [15] 22.4 µM | [16] 26.4 µM | [17] 4.26 µM | [18] 9.33 µM | [19] 4.45 µM | [20] 2.77 µM

CS(=O)(=O)c1ccc(C2=C(c3ccccc3)C(=O)OC2)cc1 [ROFECOXIB]
inactive: [1] > 100 µM | [2] > 100 µM | [3] > 100 µM | [4] > 100 µM | [5] > 100 µM | [6] > 100 µM | [7] > 100 µM | [8] > 100 µM | [9] > 100 µM | [10] > 100 µM | [11] > 100 µM | [12] > 100 µM | [13] > 100 µM | [14] > 100 µM | [15] > 100 µM | [16] > 100 µM | [17] > 100 µM | [18] > 100 µM | [19] > 100 µM | [20] > 100 µM

S=C(/N=c1\sc(NCc2ccccc2)nc2sc3c(c12)CCN(N1CCc2c(sc4nc(NCc5ccccc5)s/c(=N\C(=S)NCc5ccccc5)c24)C1)C3)NCc1ccccc1
inactive: [1] 29.1 µM | [2] 17.4 µM | [3] 22.3 µM | [4] 15.8 µM | [5] 45 µM | [6] 27.4 µM | [7] 36.7 µM | [8] 42.9 µM | [9] 9.64 µM | [10] 58.3 µM | [11] 27.4 µM | [12] 32.1 µM | [13] 21.9 µM | [14] 27.5 µM | [15] 45 µM | [16] 52 µM | [17] 7.74 µM | [18] 37.8 µM | [19] 17.4 µM | [20] 42.9 µM

COC(=O)c1cccc(COc2ccc([N+](=O)[O-])cc2Cl)c1
inactive: [1] 53.3 µM | [2] > 100 µM | [3] > 100 µM | [4] > 100 µM | [5] > 100 µM | [6] 42.5 µM | [7] 58.3 µM | [8] > 100 µM | [9] > 100 µM | [10] > 100 µM | [11] > 100 µM | [12] > 100 µM | [13] 56 µM | [14] > 100 µM | [15] > 100 µM | [16] 36.5 µM | [17] > 100 µM | [18] > 100 µM | [19] 72.4 µM | [20] > 100 µM

Clc1cc(Cl)c2cc3cccc[n+]3cc2c1Cl
inactive: [1] 16.3 µM | [2] 12 µM | [3] 17.6 µM | [4] 14.2 µM | [5] 19.2 µM | [6] 17.2 µM | [7] 15.5 µM | [8] 17.5 µM | [9] 18.7 µM | [10] 16.3 µM | [11] 12.8 µM | [12] 14.8 µM | [13] 6.17 µM | [14] 15.6 µM | [15] 15.2 µM | [16] 18.6 µM | [17] 6.44 µM | [18] 18.3 µM | [19] 19 µM | [20] 16.3 µM

Cc1c(C(=O)c2ccc(N)c3ccccc23)c2ccccc2n1CCN1CCOCC1
inactive: [1] 31.4 µM | [2] 2.62 µM | [3] 26.1 µM | [4] 21.2 µM | [5] 25.9 µM | [6] 13.1 µM | [7] 3.1 µM | [8] 24.5 µM | [9] 28 µM | [10] 18.6 µM | [11] 28.6 µM | [12] 27.5 µM | [13] 7.85 µM | [14] 5.74 µM | [15] 31.1 µM | [16] 29.3 µM | [17] 19.5 µM | [18] 23.4 µM | [19] 25.5 µM | [20] 2.02 µM

CC(C)CC1C(=O)NCCC(NC(=O)C(N)Cc2ccc(O)cc2)C(=O)NC(Cc2ccccc2)C(=O)NC(Cc2ccccc2)NC1=O (stereo not given)
inactive: [1] > 100 µM | [2] > 100 µM | [3] > 100 µM | [4] > 100 µM | [5] > 100 µM | [6] > 100 µM | [7] > 100 µM | [8] > 100 µM | [9] > 100 µM | [10] > 100 µM | [11] > 100 µM | [12] > 100 µM | [13] > 100 µM | [14] > 100 µM | [15] > 100 µM | [16] > 100 µM | [17] > 100 µM | [18] > 100 µM | [19] > 100 µM | [20] > 100 µM

CSc1ccc2c(c1)N(CCCN(C)C)c1ccccc1S2
inactive: [1] 11.7 µM | [2] 6.97 µM | [3] 15.2 µM | [4] 11.9 µM | [5] 15.3 µM | [6] 15.4 µM | [7] 11.5 µM | [8] 5.19 µM | [9] 13.7 µM | [10] 15.6 µM | [11] 13.6 µM | [12] 12.7 µM | [13] 8.67 µM | [14] 14 µM | [15] 15.6 µM | [16] 11.2 µM | [17] 12.7 µM | [18] 12.1 µM | [19] 4.28 µM | [20] 4.67 µM
